Source: patent publication US20140275078A1, “COMPOSITIONS AND METHODS FOR TREATING CANCER USING PI3KB INHIBITOR AND MAPK PATHWAY INHIBITOR, INCLUDING MEK AND RAF INHIBITORS” (SANOFI, priority 2011, published 2014)
“And” between values parts separate entries of the source, which are not always exact repeats. Identical values can stand only once. Like-named read-outs stand apart in the source and are kept apart here.

What was measured:
[1] = tested on: human melanoma cell line UACC-62; assay: Cell proliferation (CelltiterGlo, ray design) in UACC-62; type: cell-based; conditions: single agent, 96 hours, 4-parameter logistic model
Method: The human melanoma UACC-62 cell line was purchased at NCI (Batch 0503000). The UACC-62 cells were cultured in RPMI1640 medium supplemented with 10% FBS and 2 mM L-Glutamine.
They were diluted in cascade, in DMSO and then diluted 50-fold in culture medium containing 10% serum before being added onto cells with a 20-fold dilution factor. The final concentrations tested were defined by Ray design described in Table 1. The DMSO concentration was 0.1% in controls and in all treated wells.
(§1) UACC-62 cells were plated at 2500 cells/well in 96-well plates in appropriate culture medium and incubated 6 hours at 37° C., 5% CO2. […] Cell growth was evaluated by measuring intracellular ATP using CelltiterGlo® reagent (Promega) according to the manufacturer's protocol. Briefly, Cell Titer Glo was added to each plate, incubated for 1 hour then luminescent signal was read on the MicroBeta Luminescent plate reader. All plates were run in duplicate. All assays were run at least in duplicate.
(§2) Inhibition of cell growth was estimated after treatment with compound or combination of compounds for four days and comparing the signal to cells treated with vehicle (DMSO).
Growth inhibition percentage (GI %) was calculated according to the following equation: GI %=100*(1−((X−BG)/(TC−BG)) […]

[2] = tested on: human melanoma cell line WM-266-4; assay: Cell proliferation (CelltiterGlo, ray design) in WM-266-4; type: cell-based; conditions: single agent, 96 hours, 4-parameter logistic model
Method: as §1, §2
Growth inhibition percentage (GI %) was calculated according to the following equation: GI %=100*(1−((X−BG)/(TC−BG))
A global non linear mixed model using NLMIXED procedure of SAS V9.2 was applied to fit simultaneously the concentration-responses curves for each ray. The combination index
of each ray i and its 95% confidence interval was then estimated using the following equation: […]
where IC40A and IC40B are the concentrations of compound A and compound B necessary to obtain 40% of inhibition for each compound alone and CA and CB are the concentrations of compound A and compound B in the mixture necessary to obtain 40% of inhibition.
The human melanoma WM-266-4 cell line was purchased at ATCC (Ref number CRL-1676 Batch 3272826). The WM-266-4 cells were cultured in RPMI1640 medium supplemented with 10% FBS and 2 mM L-Glutamine.
Materials and Methods are the same described in example 1.
The human melanoma WM-266-4 cell line was purchased at ATCC (Ref number CRL-1676 Batch 3272826). The WM-266.4 cells were cultured in RPMI1640 medium supplemented with 10% FBS and 2 mM L-Glutamine.

[3] = tested on: human melanoma tumors WM-266.4; conditions: for tolerability (body weight loss): Cpd (2a) 25 and 10 mg/kg qd, Cpd (2b) 100 and 50 mg/kg qd, single agents or combination
[4] = Chemical stability of dosing stock solution; conditions: oral dosing formulation of each compound; in the dark at RT
[5] = tested on: human melanoma tumors UACC-62; assay: Antitumor activity against subcutaneous UACC-62 tumors in SCID female mice; conditions: for tolerability (body weight loss): single agents or combination
[6] = tested on: human primary colon tumors CR-IGR-014P; conditions: Ex. 8, Cpd (I) 150 mg/kg bid
[7] = molecular target: PI3K gamma (Homo sapiens, UniProt P48736); conditions: cited from earlier work
[8] = Ex. 7, Cpd (I) 150 mg/kg bid, Cpd (2b) 50 mg/kg qd, alone or combined, Day 24
[9] = Ex. 7, Cpd (I) 150 mg/kg bid, Cpd (2b) 50 mg/kg qd, alone or combined, Day 27
[10] = Ex. 7, Cpd (I) 150 mg/kg bid, Cpd (2b) 50 mg/kg qd, alone or combined, Day 29
[11] = Ex. 7, Cpd (I) 150 mg/kg bid, Cpd (2b) 50 mg/kg qd, alone or combined, Day 31
[12] = Ex. 7, Cpd (I) 150 mg/kg bid, Cpd (2b) 50 mg/kg qd, alone or combined, Global
[13] = Ex. 7, Cpd (I) 150 mg/kg bid, Cpd (2b) 100 mg/kg qd, alone or combined, Day 24
[14] = Ex. 7, Cpd (I) 150 mg/kg bid, Cpd (2b) 100 mg/kg qd, alone or combined, Day 27
[15] = Ex. 7, Cpd (I) 150 mg/kg bid, Cpd (2b) 100 mg/kg qd, alone or combined, Day 29
[16] = Ex. 7, Cpd (I) 150 mg/kg bid, Cpd (2b) 100 mg/kg qd, alone or combined, Day 31
[17] = Ex. 7, Cpd (I) 150 mg/kg bid, Cpd (2b) 100 mg/kg qd, alone or combined, Global
[18] = Ex. 6, Cpd (I) 151.5 mg/kg bid, Cpd (2b) 50 mg/kg qd, alone or combined, Day 11
[19] = Ex. 6, Cpd (I) 151.5 mg/kg bid, Cpd (2b) 50 mg/kg qd, alone or combined, Day 13
[20] = Ex. 6, Cpd (I) 151.5 mg/kg bid, Cpd (2b) 50 mg/kg qd, alone or combined, Day 15
[21] = Ex. 6, Cpd (I) 151.5 mg/kg bid, Cpd (2b) 50 mg/kg qd, alone or combined, Global
[22] = Ex. 6, Cpd (I) 151.5 mg/kg bid, Cpd (2b) 100 mg/kg qd, alone or combined, Day 11
[23] = Ex. 6, Cpd (I) 151.5 mg/kg bid, Cpd (2b) 100 mg/kg qd, alone or combined, Day 13
[24] = Ex. 6, Cpd (I) 151.5 mg/kg bid, Cpd (2b) 100 mg/kg qd, alone or combined, Day 15
[25] = Ex. 6, Cpd (I) 151.5 mg/kg bid, Cpd (2b) 100 mg/kg qd, alone or combined, Global
[26] = Ex. 6, PO d8-15, Cpd (I) 151.5 mg/kg bid, Cpd (2b) 100 mg/kg qd, alone or combined
[27] = Ex. 7, PO d21-31, Cpd (I) 150 mg/kg bid, Cpd (2a) 10 mg/kg qd, alone or combined
[28] = PO d20-36, Cpd (2a) 10 mg/kg qd, alone or combined
[29] = Ex. 5, PO d11-22, Cpd (I) 150 mg/kg bid, Cpd (2a) 10 mg/kg qd, alone or combined

Sequence of PI3K gamma (P48736 whole entry): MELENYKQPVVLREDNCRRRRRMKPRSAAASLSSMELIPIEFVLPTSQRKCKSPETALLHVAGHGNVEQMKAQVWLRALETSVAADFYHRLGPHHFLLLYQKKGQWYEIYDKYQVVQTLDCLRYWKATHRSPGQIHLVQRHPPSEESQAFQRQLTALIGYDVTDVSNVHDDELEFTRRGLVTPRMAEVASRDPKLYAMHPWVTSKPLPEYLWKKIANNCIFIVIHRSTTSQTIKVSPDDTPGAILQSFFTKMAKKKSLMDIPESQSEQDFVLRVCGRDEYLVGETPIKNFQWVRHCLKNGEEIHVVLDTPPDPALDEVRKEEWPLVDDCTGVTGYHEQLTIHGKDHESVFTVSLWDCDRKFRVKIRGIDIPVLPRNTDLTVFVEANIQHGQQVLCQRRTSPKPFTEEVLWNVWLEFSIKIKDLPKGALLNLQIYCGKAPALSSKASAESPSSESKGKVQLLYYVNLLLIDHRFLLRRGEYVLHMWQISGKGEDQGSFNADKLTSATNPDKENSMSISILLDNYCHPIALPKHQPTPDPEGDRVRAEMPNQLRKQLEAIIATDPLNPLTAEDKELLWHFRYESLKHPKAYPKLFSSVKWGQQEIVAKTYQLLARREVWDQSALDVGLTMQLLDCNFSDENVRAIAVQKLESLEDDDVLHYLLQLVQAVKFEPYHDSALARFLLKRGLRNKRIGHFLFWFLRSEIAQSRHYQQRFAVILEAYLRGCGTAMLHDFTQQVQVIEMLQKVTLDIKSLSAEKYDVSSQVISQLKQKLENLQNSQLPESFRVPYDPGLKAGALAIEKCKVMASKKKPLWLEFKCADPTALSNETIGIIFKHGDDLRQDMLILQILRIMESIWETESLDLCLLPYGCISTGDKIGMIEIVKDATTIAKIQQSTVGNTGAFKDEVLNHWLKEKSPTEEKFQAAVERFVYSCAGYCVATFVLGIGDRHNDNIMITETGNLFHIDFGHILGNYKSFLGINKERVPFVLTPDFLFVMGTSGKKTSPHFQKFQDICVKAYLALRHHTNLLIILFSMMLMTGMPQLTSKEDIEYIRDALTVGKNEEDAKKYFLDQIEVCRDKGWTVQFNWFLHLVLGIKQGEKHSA

SMILES: CCCS(=O)(=O)Nc1ccc(F)c(C(=O)c2c[nH]c3ncc(-c4ccc(Cl)cc4)cc23)c1F [Compound (2b), 1-Propanesulfonamide, N-[3-[[5-(4-chlorophenyl)-1H-pyrrolo[2,3-b]pyridin-3-yl]carbonyl]-2,4-difluorophenyl]]
- Absolute IC40 ([1]; example 2): 18 nM and 17.7 nM
- Absolute IC40 ([2]; example 4): 35 nM
- tolerability (body weight loss) ([3]; Ex. 7, Cpd (I) 150 mg/kg bid): well tolerated
- Tumor volume changes from baseline: Median (nMad) [3, 8]: 116 (11.9)
- Tumor volume changes from baseline: Median (nMad) [3, 9]: 254 (118.6)
- Tumor volume changes from baseline: Median (nMad) [3, 10]: 322 (94.9)
- Tumor volume changes from baseline: Median (nMad) [3, 11]: 442 (60.8)
- Tumor volume changes from baseline: Median (nMad) [3, 12]: 274 (228.3)
- Tumor volume changes from baseline: Median (nMad) [3, 13]: 36 (26.7)
- Tumor volume changes from baseline: Median (nMad) [3, 14]: 171 (40)^
- Tumor volume changes from baseline: Median (nMad) [3, 15]: 226 (86)^
- Tumor volume changes from baseline: Median (nMad) [3, 16]: 441 (96.4)
- Tumor volume changes from baseline: Median (nMad) [3, 17]: 193.5 (200.2)^
- ΔT/ΔC % (day 31) ([3]; Ex. 7, PO d21-31, Cpd (I) 150 mg/kg bid, Cpd (2b) 50 mg/kg qd, alone or combined): > 40%
- ΔT/ΔC % (day 31) ([3]; Ex. 7, PO d21-31, Cpd (I) 150 mg/kg bid, Cpd (2b) 50 mg/kg qd, alone or combined, listed as Cpd. 2b): 59%
- ΔT/ΔC % (day 31) ([3]; Ex. 7, PO d21-31, Cpd (I) 150 mg/kg bid, Cpd (2b) 100 mg/kg qd, alone or combined): > 40%
- ΔT/ΔC % (day 31) ([3]; Ex. 7, PO d21-31, Cpd (I) 150 mg/kg bid, Cpd (2b) 100 mg/kg qd, alone or combined, listed as Cpd. 2b): 59%
- Average body weight change in % per mouse at nadir ([3]; mouse, in vivo): −6.6 (31) %
- stock solution chemically stable [4]: 7 days
- Tumor volume changes from baseline: Median (nMad) [5, 18]: 62 (16.3)
- Tumor volume changes from baseline: Median (nMad) [5, 19]: 157 (132)
- Tumor volume changes from baseline: Median (nMad) [5, 20]: 240 (132)^
- Tumor volume changes from baseline: Median (nMad) [5, 21]: 154 (136.4)
- Tumor volume changes from baseline: Median (nMad) [5, 22]: 54 (60.8)
- Tumor volume changes from baseline: Median (nMad) [5, 23]: 126 (74.1)
- Tumor volume changes from baseline: Median (nMad) [5, 24]: 152 (161.6)
- Tumor volume changes from baseline: Median (nMad) [5, 25]: 98 (89)^
- tolerability (body weight loss) ([5]; Ex. 6, Cpd (I) 151.5 mg/kg bid, Cpd (2b) 100 and 50 mg/kg qd): well tolerated inducing minimal bwl
- ΔT/ΔC % (day 15) [5, 26]: 20%
- Average body weight change in % per mouse at nadir ([5]; mouse, in vivo): −3.7 (13) % and −1.7 (15) %

SMILES: Cn1cnc2c(F)c(Nc3ccc(Br)cc3Cl)c(C(=O)NOCCO)cc21 [Compound (2a), 1H-Benzimidazole-6-carboxamide, 5-[(4-bromo-2-chlorophenyl)amino]-4-fluoro-N-(2-hydroxyethoxy)-1-methyl]
- Absolute IC40 ([1]; example 1): 27 nM
- Absolute IC40 ([2]; example 3): 33 nM
- tolerability (body weight loss) ([3]; Ex. 7, Cpd (I) 150 mg/kg bid): induced a higher bwl as compared to the control
- Average body weight change in % per mouse at nadir [3, 27]: −10.5%
- Drug death (Day of death) [3, 27]: 0/7
- day of nadir [3, 27]: 31 days
- ΔT/ΔC % (day 31) [3, 27]: 36%
- tolerability (body weight loss) ([6]; Cpd (2a) 25 and 10 mg/kg qd, single agents or combination): well tolerated inducing minimal bwl
- Average body weight change in % per mouse at nadir [6, 28]: −4.2%
- Drug death (Day of death) [6, 28]: 0/7
- day of nadir [6, 28]: 27 days
- ΔT/ΔC % (day 36) [6, 28]: 84%
- stock solution chemically stable [4]: 7 days
- tolerability (body weight loss) ([5]; Ex. 5, Cpd (I) 150 mg/kg bid, Cpd (2a) 25 and 10 mg/kg qd): well tolerated inducing minimal bwl
- Average body weight change in % per mouse at nadir [5, 29]: −4.3%
- Drug death (Day of death) [5, 29]: 0/7
- day of nadir [5, 29]: 21 days
- ΔT/ΔC % (day 22) [5, 29]: 35%

SMILES: C[C@H]1Cc2ccccc2N1C(=O)Cc1nc(N2CCOCC2)cc(=O)[nH]1 [Compound (I), 2-{2-[(2S)-2-methyl-2,3-dihydro-1H-indol-1-yl]-2-oxoethyl}-6-(morpholin-4-yl)pyrimidin-4(3H)-one]
- Absolute IC40 ([2]; example 3): 834 nM
- Tumor volume changes from baseline: Median (nMad) [3, 8]: 54 (53.4)
- Tumor volume changes from baseline: Median (nMad) [3, 9]: 132 (62.3)
- Tumor volume changes from baseline: Median (nMad) [3, 10]: 162 (47.4)
- Tumor volume changes from baseline: Median (nMad) [3, 11]: 272 (20.8)
- Tumor volume changes from baseline: Median (nMad) [3, 12]: 138 (100.8)
- Tumor volume changes from baseline: Median (nMad) [3, 13]: 54 (53.4)
- Tumor volume changes from baseline: Median (nMad) [3, 14]: 132 (62.3)
- Tumor volume changes from baseline: Median (nMad) [3, 15]: 162 (47.4)
- Tumor volume changes from baseline: Median (nMad) [3, 16]: 272 (20.8)
- Tumor volume changes from baseline: Median (nMad) [3, 17]: 138 (100.8)
- IC50 [7]: > 10000 nM
- stock solution chemically stable [4]: 7 days
- Tumor volume changes from baseline: Median (nMad) [5, 18]: 54 (62.3)
- Tumor volume changes from baseline: Median (nMad) [5, 19]: 145 (71.2)
- Tumor volume changes from baseline: Median (nMad) [5, 20]: 303 (63.8)
- Tumor volume changes from baseline: Median (nMad) [5, 21]: 145 (89)
- Tumor volume changes from baseline: Median (nMad) [5, 22]: 54 (62.3)
- Tumor volume changes from baseline: Median (nMad) [5, 23]: 145 (71.2)
- Tumor volume changes from baseline: Median (nMad) [5, 24]: 303 (63.8)
- Tumor volume changes from baseline: Median (nMad) [5, 25]: 145 (89)
- Average body weight change in % per mouse at nadir [5, 26]: −2.9%
- Drug death (Day of death) [5, 26]: 0/7
- day of nadir [5, 26]: 15 days
- ΔT/ΔC % (day 15) [5, 26]: 39%
